Where two headings read alike, the source gives them in different places.
Columns and labels:
[1] = tested on: intestinal tumors of LS/HNPCC mice; experiment: Tumor number and pathology following NSAID treatment; settings: for numbers of tumors when sacrificed: untreated 1.90±1.02, statistically equivalent
[2] = tested on: MMR-deficient human colon tumor cells; experiment: MSI suppression in MMR-defective cells; assay type: cell-based; settings: for MSI suppression (in words): long-term exposure of MMR-defective cells
Source text: Inhibition of cyclooxygenase-1 (COX1) or COX2 activity that is involved in the production of inflammatory prostaglandins was, in the past, generally considered a mechanism for cancer chemoprevention by NSAIDs.

LS/HNPCC patients = settings: cited from earlier work; for decrease in the rate of tumor formation / tumor incidence: long-term aspirin exposure (benefit after 5 yrs) vs placebo-treated cohort
[3] = tested on: Msh2^flox/floxVpC^+/+ (LS/HNPCC) mice; experiment: Kaplan-Meier survival of LS/HNPCC mice treated with NSAIDs in diet; assay type: in vivo, mouse
Procedure: (§1) Cohorts of equivalent gender Msh2^flox/floxVpC^+/+ mice were treated with NSAIDs including ASA that were mixed with powdered diet and administered ad libitum. VpC^+/+ (Msh2^++) mice were similarly examined to control for potentially confounding effects of continuous Cre expression in the intestine. Kaplan-Meier survival analyses were generated for each NSAID treatment (FIG. 2).
A mouse model where exon 12 of Msh2 is flanked by LoxP recombination sites (Msh2^flox/flox) was generated. […] When considering the utility of this mouse model it is important to note that while modern day LS/HNPCC largely occurs in the colon, it was originally described as a gastric cancer.
The endpoint for the chemopreventive analysis of NSAIDs on mouse tumorigenesis is survival. Assessment of tumor kinetics, treatment regimes and pathological changes during tumor development constitute a correlative quantitative database.

[4] = tested on: microsatellite instability (MSI) in intestinal tissues of LS/HNPCC mice; experiment: MSI analysis of tissues by small pool PCR (comparative MSI, Bethesda Criteria); assay type: in vivo, mouse; settings: for conversion of MSI to MSS (in words): intestinal compartment of treated mice; for comparative MSI-H proportion: intestinal tumor vs matched adjacent normal tissue, untreated 33%
Procedure: A MSI analysis on tissues from the ASA and NO-ASA treatment groups by small pool PCR (1-10 genomic equivalents) was performed to determine the distribution of novel alleles between constitutional DNA (Ear, E) as well as normal (N) and tumor (T) intestinal tissues. When multiple samples of each tissue were analyzed, the resulting profiles comprised a representational distribution of the intrinsic allelic diversity. Ear tissues from these mice were consistently MSS, with the major allele always flanked by a relatively unvarying pattern of alleles that arise from PCR amplification-artifacts. Normal and intestinal tissues from ASA and NO-ASA treated mice show variation in major allele sizes and distributions.
A comparative assessment of MSI status was made between intestinal tumors and their matched adjacent normal tissues by determining the absolute changes in microsatellite alterations between them. Comparative MSI provides a quantitative measure of the relative differences in instability between adjacent developmentally related normal and tumor tissues. The Bethesda Criteria for diagnostic microsatellite instability was used: MSS, no changes in microsatellite marker status; high microsatellite instability (MSI-H; ≧2 of 5 markers different).

SMC1a mRNA = settings: intestinal tissue
Procedure: (§2) Groups of 12 mice were continuously treated (6 VpC^+/+ wild type and 6 Msh2^flox/floxVpC^+/+ LS/HNPCC mice) with each of the eight NSAIDs and the intestines were harvested after two months exposure. A 0.5 cm section of intestine 2.5 cm proximal of the cecum was harvested from each individually treated mouse. High quality mRNA and miRNA was prepared for expression array analysis. To reduce the possibility of day-to-day variation the hybridization of all samples was performed simultaneously as well as sequential expression analysis. Transcriptome expression data from both the mRNA and miRNA chips was analyzed.
(§3) Identifying functional and regulatory connectivity among the differentially regulated miRs and mRNAs was analyzed to begin to determine biological pathways and networks responsible for NSAID-mediated tumor chemoprevention,. A combination of tools were used to deconvolute network interactions, including the ToppGene, ToppCluster, and ToppMir tools.

miR-9 = settings: intestinal tissue
Procedure: as §2, §3

miR-135a = settings: intestinal tissue
Procedure: as §2, §3

VpC^+/+ (wild type) mice = tested on: VpC^+/+ (wild type) mice
Procedure: as §1

CC(=O)Oc1ccccc1C(=O)O [ASA, Acetylsalicylic acid]
numbers of tumors when sacrificed [1]: 1.68±0.72 | MSI suppression (in words) [2]: suppressed MSI | Hazard Ratio (HR) (LS/HNPCC patients; 600 mg aspirin daily vs placebo, tumors by yearly colonoscopy, p=0.02): 0.61(0.1 9, 0.86) | decrease in the rate of tumor formation / tumor incidence (LS/HNPCC patients): ≥ 2 fold | decrease in the rate of tumor formation / tumor incidence (LS/HNPCC patients; listed as aspirin): at least 2 fold | mean survival ([3]; 400 mg/kg ASA in diet, untreated median 333 days, p<0.001): 393 days | increase in lifespan ([3]; 400 mg/kg ASA vs untreated): 18% | effect on survival (in words) ([3]; LS/HNPCC mice vs untreated): suppressed tumorigenesis and increased survival | conversion of MSI to MSS (in words) [4]: at least partially converted MSI to MSS | comparative MSI-H proportion [4]: 22%

COc1ccc2cc([C@H](C)C(=O)O)ccc2c1 [Naproxen, naproxen]
numbers of tumors when sacrificed [1]: 1.58±0.67 | mean survival ([3]; 166 mg/kg naproxen in diet): 545 days | mean survival ([3]; 331 mg/kg naproxen in diet): 569 days | effect on survival (in words) ([3]; LS/HNPCC mice vs untreated): nearly double the life span of untreated animals | increase in life span (FIG. 2 grouping) ([3]; representative survival data, vs untreated LS/HNPCC mice): ~100% | SMC1a mRNA expression (in words) (SMC1a mRNA): enhanced | miR-9 expression (in words) (miR-9): down-regulated | miR-135a expression (in words) (miR-135a): down-regulated

CC1=C(CC(=O)O)c2cc(F)ccc2/C1=C\c1ccc(S(C)(=O)=O)cc1 [Sulindac Sulfone, sulindac sulfone]
effect on survival (in words) ([3]; LS/HNPCC mice vs untreated): No Effect

CC1=C(CC(=O)O)c2cc(F)ccc2/C1=C\c1ccc([S+](C)[O-])cc1 (centres unmarked) [Sulindac, sulindac]
number of cecal cancers (in words) [1]: increases the number of cecal cancers | MSI suppression (in words) [2]: suppressed MSI | effect on survival (in words) ([3]; LS/HNPCC mice vs untreated): increased survival similar to ASA | tumor induction in wild type controls (in words) (VpC^+/+ (wild type) mice; mouse, in vivo): induces tumors in the wild type controls | survival of wild type mice (in words) (VpC^+/+ (wild type) mice; wild type controls, FIG. 2B): significant reduce the survival of the wild type mice

NO-sulindac sulphone
effect on survival (in words) ([3]; LS/HNPCC mice vs untreated): No Effect

nitric oxide-donating acetylsalicylic acid [NO-ASA]
numbers of tumors when sacrificed [1]: 1.78±1.25 | dose suppressing MSI, fold lower than ASA ([2]; relative to ASA): 300-3000 fold | mean survival ([3]; 72 mg/kg NO-ASA in diet): 403 days | effect on survival (in words) ([3]; LS/HNPCC mice vs untreated): suppressed tumorigenesis and increased survival | conversion of MSI to MSS (in words) [4]: at least partially converted MSI to MSS | comparative MSI-H proportion [4]: 20%

nitric oxide-donating sulindac [NO-Sulindac]
effect on survival (in words) ([3]; mouse, in vivo): increased survival similar to ASA

Reference: US20150292023A1, “Materials and Methods Related to NSAID Chemoprevention in Colorectal Cancer” (priority 2011, published 2015)
